Results published in DBAASP.
≈ marks a conversion by molar mass, not a printed value. Where “and” joins values, the source holds several entries; their conditions need not be identical. Identical values can stand only once.

Assays:
Test in all cases: ≥ marks a high value that may be exact or a test limit, other limits are often not marked, values filed in µg/mL are converted to µM
[1] = test system: Bacillus subtilis ATCC 6633
[2] = test system: Escherichia coli ATCC 10536
[3] = test system: Escherichia coli DH5alpha
[4] = test system: Staphylococcus aureus ATCC 9144
[5] = test system: Bacillus subtilis ATCC 23857
[6] = test system: Citrobacter freundii
[7] = test system: Enterobacter cloacae
[8] = test system: Enterococcus faecalis
[9] = test system: Escherichia coli ATCC 25922
[10] = test system: Escherichia coli NDM-1
[11] = test system: Klebsiella oxytoca
[12] = test system: Klebsiella pneumoniae NDM-1
[13] = test system: Morganella morganii
[14] = test system: Staphylococcus aureus ATCC 1717
[15] = test system: Bacillus subtilis 168
[16] = test system: Escherichia coli BL21
[17] = test system: Escherichia coli ESBL
[18] = test system: Staphylococcus aureus
[19] = test system: Enterococcus faecium V286-17
[20] = test system: Escherichia coli E416-7
[21] = test system: Klebsiella pneumoniae ATCC 13883
[22] = test system: Klebsiella pneumoniae E406-17
[23] = test system: Pseudomonas aeruginosa E411-17
[24] = test system: Pseudomonas aeruginosa PAO1
[25] = test system: Staphylococcus aureus JE2
[26] = test system: Staphylococcus aureus M838-17
[27] = test system: Staphylococcus aureus USA 300
[28] = test system: Aeromonas hydrophila
[29] = test system: Bacillus cereus
[30] = test system: Bacillus subtilis
[31] = test system: Candida albicans
[32] = test system: Corynebacterium glutamicum
[33] = test system: Cryptococcus neoformans
[34] = test system: Escherichia coli
[35] = test system: Pseudomonas aeruginosa
[36] = test system: Shigella flexneri
[37] = test system: Staphylococcus epidermidis
[38] = test system: Vibrio alginolyticus
[39] = test system: Vibrio parahaemolyticus
[40] = test system: Bacillus amyloliquefaciens ATCC 23842
[41] = test system: Bacillus cereus ATCC 14579
[42] = test system: Bacillus licheniformis ATCC 14580
[43] = test system: Bacillus subtilis ATCC 6051
[44] = test system: Enterococcus faecalis 1F-1
[45] = test system: Enterococcus faecium 5F-10
[46] = test system: Proteus mirabilis ATCC 35659
[47] = test system: Salmonella enterica ATCC H9812
[48] = test system: Staphylococcus aureus ATCC 29213

For CC[C@H](C)[C@H](NC(=O)CN)C(=O)NCC(=O)N[C@@H](C)C(=O)N[C@H](C(=O)N[C@@H](CC(C)C)C(=O)N[C@@H](CCCCN)C(=O)N[C@H](C(=O)N[C@@H](C)C(=O)N[C@H](C(=O)N[C@H](C(=O)NCC(=O)N[C@@H](C)C(=O)N1CCC[C@H]1C(=O)N[C@@H](C)C(=O)N[C@@H](CC(C)C)C(=O)N[C@H](C(=O)N[C@@H](CO)C(=O)N[C@@H](Cc1c[nH]c2ccccc12)C(=O)N[C@H](C(=O)N[C@@H](CCCCN)C(=O)N[C@@H](CCCN=C(N)N)C(=O)N[C@@H](CCCCN)C(=O)N[C@@H](CCCN=C(N)N)C(=O)N[C@@H](CCC(N)=O)C(=O)N[C@@H](CCC(N)=O)C(N)=O)[C@@H](C)CC)[C@@H](C)CC)[C@@H](C)O)[C@@H](C)O)C(C)C)C(C)C [GIGAVLKVATTGAPALISWIKRKRQQ], the MIC [1] was 20 µM (≈ 55.2 µg/mL), the MIC [2] was 4.5 µM (≈ 12.4 µg/mL) and the MIC [3] was 4.3 µM (≈ 11.9 µg/mL). The MIC [4] was 20 µM (≈ 55.2 µg/mL).
Work on CC[C@H](C)[C@H](NC(=O)CNC(=O)[C@@H](NC(=O)[C@H](CCCCN)NC(=O)[C@H](C)NC(=O)[C@@H](NC(=O)[C@@H](NC(=O)CN)[C@@H](C)CC)[C@@H](C)CC)[C@@H](C)CC)C(=O)N[C@@H](CCCCN)C(=O)N[C@H](C(=O)N[C@@H](CCCCN)C(=O)N[C@@H](CCCCN)C(N)=O)[C@@H](C)CC [GIIAKIGIKIKK] yielded an MIC [5] of 16 µM (≈ 20.5 µg/mL), an MIC [6] of 22.6 µM (≈ 29 µg/mL) and an MIC [7] of 22.6 µM (≈ 29 µg/mL). It also gave an MIC [8] of no less than 128 µM, an MIC [9] of 32 µM (≈ 41 µg/mL) and an MIC [10] of 16 µM (≈ 20.5 µg/mL). The MIC [11] was no less than 64 µM, the MIC [12] was 22.6 µM (≈ 29 µg/mL) and the MIC [13] was no less than 128 µM. For the same compound, the MIC [14] was no less than 128 µM.
CC[C@H](C)[C@H](NC(=O)CN)C(=O)N[C@H](C(=O)N[C@@H](CCCCN)C(=O)N[C@@H](CCCCN)C(=O)N[C@H](C(=O)N[C@H](C(=O)N[C@@H](CCCCN)C(=O)N[C@@H](CCCCN)C(=O)N[C@H](C(=O)N[C@H](C(=O)N[C@@H](CCCCN)C(=O)N[C@@H](CCCCN)C(N)=O)[C@@H](C)CC)[C@@H](C)CC)[C@@H](C)CC)[C@@H](C)CC)[C@@H](C)CC [GIIKKIIKKIIKK] was tested, and the MIC [15] was 2.5 µM (≈ 3.81 µg/mL), the MIC [16] was 20 µM (≈ 30.4 µg/mL) and the MIC [17] was 20 µM (≈ 30.4 µg/mL). The MIC [18] was 20 µM (≈ 30.4 µg/mL).
Compound CC(C)C[C@H](NC(=O)[C@H](CC(C)C)NC(=O)[C@H](CCCCN)NC(=O)[C@H](CC(C)C)NC(=O)CNC(=O)[C@H](CC(C)C)NC(=O)[C@H](CO)NC(=O)[C@H](CC(C)C)NC(=O)[C@H](CC(C)C)NC(=O)[C@H](CC(C)C)NC(=O)[C@H](CCCCN)NC(=O)[C@H](CC(C)C)NC(=O)CN)C(N)=O [GLKLLLSLGLKLL] has an MIC [19] of 4.4 µM (≈ 6.07 µg/mL), an MIC [9] greater than 25 µM and an MIC [20] of no less than 50 µM. It also gave an MIC [21] of 25 µM (≈ 34.5 µg/mL), an MIC [22] of no less than 50 µM and an MIC [23] of no less than 50 µM. For the same compound, the MIC [24] was greater than 25 µM, the MIC [25] was 1.13 µM (≈ 1.56 µg/mL) and the MIC [26] was 2.25 µM (≈ 3.1 µg/mL). For the same compound, the MIC [27] was 1.6 µM and 3.1 µM and 4.4 µM.
In the case of CC[C@H](C)[C@H](NC(=O)[C@H](CC(C)C)NC(=O)[C@H](CCC(=O)O)NC(=O)[C@@H]1CCCN1C(=O)[C@H](CC(C)C)NC(=O)[C@H](Cc1cnc[nH]1)NC(=O)[C@@H](NC(=O)[C@H](CCCCN)NC(=O)[C@@H](NC(=O)[C@H](Cc1ccccc1)NC(=O)[C@H](CCCCN)NC(=O)[C@H](CCCN=C(N)N)NC(=O)[C@H](CS)NC(=O)[C@H](CC(C)C)NC(=O)[C@H](CO)NC(=O)[C@H](CCCCN)NC(=O)[C@H](CC(C)C)NC(=O)[C@H](CC(C)C)NC(=O)CN)C(C)C)C(C)C)C(=O)N[C@@H](CCC(=O)O)C(=O)N[C@@H](CCC(=O)O)C(=O)N[C@@H](CC(C)C)C(=O)N[C@H](C(=O)N[C@H](C(=O)N[C@H](C(=O)N[C@@H](CC(=O)O)C(=O)O)[C@@H](C)O)[C@@H](C)O)[C@@H](C)O [GLLKSLCRKFVKVHLPELIEELTTTD], the MIC [28] is reported as no less than 50 µM, the MIC [29] is reported as no less than 50 µM and the MIC [30] is reported as no less than 50 µM. The MIC [31] was greater than 50 µM, the MIC [32] was 8.84 µM (≈ 26.4 µg/mL) and the MIC [33] was no less than 50 µM. For the same compound, the MIC [34] was 35.4 µM (≈ 105 µg/mL), the MIC [35] was greater than 50 µM and the MIC [36] was no less than 50 µM. It also gave an MIC [18] greater than 50 µM, an MIC [37] of no less than 50 µM and an MIC [38] of no less than 50 µM. It also gave an MIC [39] of no less than 50 µM.
CC(C)C[C@H](NC(=O)[C@@H](N)CC(C)C)C(=O)N[C@@H](CO)C(=O)N[C@@H](CCCN=C(N)N)C(=O)N[C@H](C(=O)N[C@@H](CC(=O)O)C(=O)O)C(C)C [LLSRVD] gave an MIC [40] of no less than 182 µM, an MIC [41] of no less than 182 µM and an MIC [42] of no less than 182 µM. The MIC [43] was no less than 182 µM, the MIC [44] was no less than 182 µM and the MIC [45] was no less than 182 µM. It also gave an MIC [9] of 91.2 µM (≈ 64 µg/mL), an MIC [46] of no less than 182 µM and an MIC [24] greater than 182 µM. It also gave an MIC [47] of no less than 182 µM and an MIC [48] greater than 182 µM.
